For data set [1], the target named is T1, Keap1 kelch domain protein (Residues 321-609) (Homo sapiens, UniProt Q14145).
T1 construct: Keap1 kelch domain protein (Residues 321-609, Homo Sapiens); made in house
Put plainly: Surface plasmon resonance (SPR) assay of oxidized peptides. The note with it: for Binding affinity to Keap1 (in words): major oxidized product, SPR, preliminary; for Binding affinity to Keap1 (in words) / SPR sensorgrams: binding of Keap1 (in words): 25 °C, pH 7.4; for SPR sensorgrams: binding of Keap1 (in words): oxidized peptide, HPLC purity >95%. It counts as binding. Background: In SPR one partner is held on a chip, and binding of the other changes the refractive index at the surface.

Data set [2] can be described thus: Oxidative folding of peptides (HPLC). It counts as physicochemical. The note with it: drp1 and drp4: 10 μM, 100 mM phosphate pH 7.4, 0.2 mM GSSG, drp2, drp3, k-1, k-2: 10 μM, same buffer with 6 M Gu·HCl and 0.2 mM GSSG, overnight, 37 °C. The text has this:
(§1) We then deep-sequenced the DRPs enriched in P9, and a total of ∼1404 different sequences with the expected cysteine patterns were obtained (3 different scaffolds: 256, 742 and 406, respectively; dataset S3 and Fig. 4a). Sequences with stop codon(s) are very rare compared to that found in the previous selection (dataset S4), further confirming the success of the second-generation PQC-select. […] To chemically examine the foldability of the selected DRPs, four sequences were randomly selected for synthesis and oxidation. All of them can be specifically oxidized to a major product as determined using HPLC (Fig. 4b and S7 ^†). […] The disulfide pairing of drp1 was clearly shown by the ^1H–^1H NOESY spectra (Fig. S10 ^†).
Fig. 4 Identification and application of new DRPs selected from the second-generation PQC-select. (a) Top 5 enriched sequences for the three different scaffolds obtained from the second-generation PQC-select, scaffold M-2 (top), scaffold M-6 (middle) and scaffold M-9 (bottom). (b) HPLC chromatograms showing the oxidation of drp1, drp2, drp3 and drp4 in phosphate buffers (pH 7.4, 100 mM) containing 0.2 mM GSSG or 6 M Gu·HCl and 0.2 mM GSSG. […]
Reduced peptides (drp1 and 4, 10 μM) was dissolved in 100 mM phosphate buffer (pH 7.4) containing 0.2 mM GSSG. […] After that, oxidative folding of all the peptides was further analysed using HPLC and mass spectrometry . […]

A short description of data set [3]: Solution NMR structure and disulfide pairing of drp1. It counts as physicochemical. The following applies: oxidized drp1, ~1 mM, 80% perdeuterated acetonitrile / 20% H2O, 302 K.
Text: as §1, with “S10 ^†). […]” for “S10 ^†).”
without target protein were then added to half of the blocked phage respectively and incubated for 30 min on a rotating wheel. […]
Reduced peptides (drp1 and 4, 10 μM) was dissolved in 100 mM phosphate buffer (pH 7.4) containing 0.2 mM GSSG. […] After that, oxidative folding of all the peptides was further analysed using HPLC and mass spectrometry .
Drp1 were dissolved in 80% perdeuterated acetonitrile and 20% H2O at a final concentration of about 1 mM . […] Two dimensional (2D) 1H, 15N/13C HSQC spectra were recorded to obtain chemical shifts of heavy atoms […]
in backbone and side-chains. […] The NMR data were processed using NMRPipe/NMRDraw and analyzed using NMRFAM-SPARKY5. […]

The term Kd denotes the equilibrium constant for the complex coming apart.

Where a SMILES comes first, the peptide text is derived from it. Bridges are numbered along the chain shown (N, C = ends).

T1 sequence (Q14145 321-609): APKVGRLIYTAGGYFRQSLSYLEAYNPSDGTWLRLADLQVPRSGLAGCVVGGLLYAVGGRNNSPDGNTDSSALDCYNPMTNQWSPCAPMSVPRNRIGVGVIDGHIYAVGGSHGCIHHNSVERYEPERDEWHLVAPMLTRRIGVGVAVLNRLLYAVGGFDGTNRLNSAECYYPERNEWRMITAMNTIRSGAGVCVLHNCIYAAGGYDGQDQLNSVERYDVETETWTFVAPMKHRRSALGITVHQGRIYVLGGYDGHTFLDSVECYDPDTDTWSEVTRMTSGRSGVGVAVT

With `CC[C@H](C)[C@@H]1NC(=O)[C@@H]2CCCN2C(=O)[C@H](CCCNC(=N)N)NC(=O)[C@H](CCCNC(=N)N)NC(=O)[C@H]([C@@H](C)O)NC(=O)CNC(=O)[C@H](CCC(N)=O)NC(=O)[C@@H]2CSSC[C@H](NC(=O)[C@H](CCSC)NC(=O)[C@H](C)NC(=O)[C@H](CCCNC(=N)N)NC1=O)C(=O)N[C@@H](CC(N)=O)C(=O)N[C@@H](CC(=O)O)C(=O)N[C@@H](CO)C(=O)N[C@@H](C(C)C)C(=O)N1CCC[C@H]1C(=O)N[C@H]1CSSC[C@H](NC(=O)[C@@H](N)Cc3c[nH]c4ccccc34)C(=O)N3CCC[C@H]3C(=O)N3CCC[C@H]3C(=O)N[C@@H](CSSC[C@@H](C(N)=O)NC(=O)[C@@H]3CCCN3C(=O)[C@@H]3CCCN3C1=O)C(=O)N[C@@H](CCCNC(=N)N)C(=O)N[C@@H](Cc1ccccc1)C(=O)N[C@@H]([C@@H](C)O)C(=O)N[C@@H](CC(C)C)C(=O)N[C@@H](CO)C(=O)N[C@@H](CCC(=O)O)C(=O)N[C@@H](CCC(=O)O)C(=O)N[C@@H]([C@@H](C)O)C(=O)NCC(=O)N[C@@H](CCC(=O)O)C(=O)N2` [k-1] (H-WCPPCRFTLSEETGECQGTRRPIRAMCNDSVPCPPC-NH2; disulfide 2-33, 5-36, 16-27 (inferred)), in data set [1], the “Binding affinity to Keap1 (in words)” value is “submicromolar range”. For the same molecule, the “SPR sensorgrams: binding of Keap1 (in words)” value in data set [1] (50-3200 nM) was “in a concentration-dependent manner”. The Kd in data set [1] (oxidized product (major), Biacore T200, 25 °C, biotinylated Keap1 on CAP chip, 10 mM phosphate pH 7.4, 50 μM EDTA, 0.05% Tween 20, 50-3200 nM, multiple cycle kinetics, 1:1 binding model, read-out: KD (equilibrium dissociation constant, SPR)) was 349 nM. Besides, the kon in data set [1] (oxidized product, Biacore T200, 25 °C, 10 mM phosphate pH 7.4, 50 μM EDTA, 0.05% Tween 20, multiple cycle kinetics, 1:1 binding model, local fit, read-out: ka (association rate constant)) amounted to 54800 M⁻¹ s⁻¹. The koff in data set [1] (oxidized product, Biacore T200, 25 °C, 10 mM phosphate pH 7.4, 50 μM EDTA, 0.05% Tween 20, multiple cycle kinetics, 1:1 binding model, local fit, read-out: kd (dissociation rate constant)) amounted to 0.0191 s⁻¹. The “Oxidative folding outcome (in words)” value in data set [2] is listed as “can be oxidized to a major product”.

Turning to “H-GCPPCRFTLSPWVSPCSNPHWPIRAMCNDSVPCPPC-NH2 (also: bicyclic or more (positions not given here)) [drp1, CPPC disulfide-rich peptide selected by PQC-select; PDB 8GUC]”, the “Folding in solution by 1H–1H TOCSY (in words)” value in data set [3] was “well-folded in solution”. Further, the “3D structure and disulfide pairing by NMR (in words)” value in data set [3] (PDB 8GUC, 15 lowest-energy structures) is “irregular but rigid loops and a short α-helix constrained through three disulfide bonds with the two CPPC motifs paired parallelly”.

Take “H-WCPPCRFTLSPETGECQGTKRPIRAMCNDSVPCPPC-NH2 (also: bicyclic or more (positions not given here)) [k-2]”: the “Binding affinity to Keap1 (in words)” value in data set [1] was “submicromolar range”. The “SPR sensorgrams: binding of Keap1 (in words)” value in data set [1] (50-3200 nM) is “in a concentration-dependent manner”. The “Oxidative folding outcome (in words)” value in data set [2] is given as “can be oxidized to a major product”.

The values above are taken from PMC10055976, “Selection and evolution of disulfide-rich peptides via cellular protein quality control” (Chemical Science, 2023).
